Test results published in US20050175545A1, “Formulation for inhalation comprising a glucocorticoid and a beta 2-adrenoreceptor agonist” (priority 2002, published 2005).
Values belong to the compound of their own block, whether it stands above or below them.

Experiments:
[1] = Pharmacokinetics after intravenous and oral dosing in rats; conditions: in vivo data in the rat
[2] = Pharmacokinetics after intra-tracheal dry powder dosing in the pig; format: in vivo; conditions: intra-tracheal 1 mg; lower limits of quantitation 10 (Example 1) and 20 pg/mL (fluticasone propionate)
Method: Serial blood samples were taken for up to 8h following dosing.

lung eosinophilia = experiment: ovalbumin sensitised Brown Norway rat eosinophilia model; format: in vivo; conditions: intra-tracheal suspension in saline 30 min prior to ovalbumin challenge
Method: Pharmacological activity in vivo was assessed in an ovalbumin sensitised Brown Norway rat eosinophilia model. This model is designed to mimic allergen induced lung eosinophilia, a major component of lung inflammation in asthma.

rat hepatocytes = experiment: In vitro metabolism in rat hepatocytes; format: in vitro ADME; conditions: 17-β carboxylic acid (X) only significant metabolite
[3] = Pharmacokinetics after intravenous administration in the anaesthetised pig; format: in vivo; conditions: for clearance (comparison, in words): intravenous 0.1 mg/kg; for pharmacokinetic parameters (comparison, in words): intravenous mixture of the two compounds at 0.1 mg/kg
Text: The clearance of these two glucocorticoids is similar is this experimental pig model.

human hepatocytes = experiment: In vitro metabolism in human hepatocytes; format: in vitro ADME; conditions: 17-β carboxylic acid (X) only significant metabolite
NFκB = NFκB firefly luciferase reporter stimulated with TNFα, transrepression; format: cell-based; conditions: Homo sapiens, A549, read-out: Transrepression (NFκB) ED50 (nM)
Text: The glucocorticoid receptor (GR) can function in at least two distinct mechanisms, by upregulating gene expression through the direct binding of GR to specific sequences in gene promoters, and by downregulating gene expression that is being driven by other transcription factors (such as NFκB or AP-1) through their direct interaction with GR.
The first cell line contains the firefly luciferase reporter gene under the control of a synthetic promoter that specifically responds to activation of the transcription factor NFκB when stimulated with TNFα. The second cell line contains the renilla luciferase reporter gene under the control of a synthetic promotor that comprises 3 copies of the consensus glucocorticoid response element, and which responds to direct stimulation by glucocorticoids. Simultaneous measurement of transactivation and transrepression was conducted by mixing the two cell lines in a 1:1 ratio in 96 well plate (40,000 cells per well) and growing overnight at 37° C. Test compounds were dissolved in DMSO, and added to the cells at a final DMSO concentration of 0.7%. After incubation for 1 h 0.5 ng/ml TNFα (R&D Systems) was added and after a further 15 hours at 37° C., the levels of firefly and renilla luciferase were measured using the Packard Firelite kit following the manufacturers' directions. Dose response curves were constructed from which EC50 values were determined.

Compound: Cc1cc(C(=O)OC2(C(=O)SCF)C(C)CC3C4CC(F)C5=CC(=O)C=CC5(C)C4(F)C(O)CC32C)on1 (stereo not drawn) [Example 25, 6α,9α-Difluoro-11β-hydroxy-16α-methyl-17α-[(3-methylisoxazole-5-carbonyl)oxy]-3-oxo-androsta-1,4-diene-17β-carbothioic acid S-fluoromethyl ester]
- plasma clearance (in words) [1]: approaching hepatic blood flow

Compound: CC1CC2C3CC(F)C4=CC(=O)C=CC4(C)C3(F)C(O)CC2(C)C1(OC(=O)c1ccon1)C(=O)SCF (stereo not drawn) [Example 28, 6α,9α-Difluoro-11β-hydroxy-17α-[(isoxazole-3-carbonyl)oxy]-16α-methyl-3-oxo-androsta-1,4-diene-17β-carbothloic acid S-fluoromethyl ester]
- plasma clearance (in words) [1]: approaching hepatic blood flow

- time after dosing up to which quantifiable in plasma [2]: up to 2 hours
- clearance (comparison, in words) [3]: similar
- pharmacokinetic parameters (comparison, in words) [3]: the same
- plasma clearance (in words) [1]: approaching hepatic blood flow
Compound: C[C@@H]1CC2C3C[C@H](F)C4=CC(=O)C=C[C@]4(C)[C@@]3(F)[C@@H](O)C[C@]2(C)[C@@]1(OC(=O)c1ccco1)C(=O)SCF (stereo partly drawn) [Example 1, 6α,9α-Difluoro-17α-[(2-furanylcarbonyl)oxy]-11β-hydroxy-16α-methyl-3-oxo-androsta-1,4-diene-17β-carbothioic acid S-fluoromethyl ester]
- inhibition of lung eosinophilia (dose relation, in words) (lung eosinophilia): dose dependant inhibition
- manner of metabolism (rat hepatocytes): metabolised in an identical manner to fluticasone propionate
- manner of metabolism (human hepatocytes): metabolised in an identical manner to fluticasone propionate

Compound: CC1CC2C3CC(F)C4=CC(=O)C=CC4(C)C3(F)C(O)CC2(C)C1(OC(=O)c1ccsc1)C(=O)SCF (stereo not drawn) [Example 4, 6α,9α-Difluoro-11β-hydroxy-16α-methyl-3-oxo-17α-[(3-thienylcarbonyl)oxy]-androsta-1,4-diene-17β-carbothioic acid S-fluoromethyl ester]
- plasma clearance (in words) [1]: approaching hepatic blood flow

Compound: Cc1ccoc1C(=O)OC1(C(=O)SCF)C(C)CC2C3CC(F)C4=CC(=O)C=CC4(C)C3(F)C(O)CC21C (stereo not drawn) [Example 19, 6α,9α-Difluoro-11β-hydroxy-16α-methyl-17α-[(3-methylfuran-2-carbonyl)oxy]-3-oxo-androsta-1,4-diene-17β-carbothioic acid S-fluoromethyl ester]
- plasma clearance (in words) [1]: approaching hepatic blood flow

Compound: C[C@@H]1C[C@H]2[C@@H]3C[C@H](F)C4=CC(=O)C=C[C@]4(C)[C@@]3(F)[C@@H](O)C[C@]2(C)[C@@]1(OC(=O)c1ccco1)C(=O)O [Metabolite (X)]
- EC50 (NFκB): > 1000 nM

Compound: Cc1cc(C(=O)OC2(C(=O)SCF)C(C)CC3C4CC(F)C5=CC(=O)C=CC5(C)C4(F)C(O)CC32C)no1 (stereo not drawn) [Example 24, 6α,9α-Difluoro-11β-hydroxy-16α-methyl-17α-[(5-methylisoxazole-3-carbonyl)oxy]-3-oxo-androsta-1,4-diene-17β-carbothioic acid S-fluoromethyl ester]
- plasma clearance (in words) [1]: approaching hepatic blood flow

- time after dosing up to which quantifiable in plasma [2]: up to 8 hours
- clearance (comparison, in words) [3]: similar
- pharmacokinetic parameters (comparison, in words) [3]: the same
Compound: CCC(=O)O[C@]1(C(=O)SCF)[C@H](C)C[C@H]2[C@@H]3C[C@H](F)C4=CC(=O)C=C[C@]4(C)[C@@]3(F)[C@@H](O)C[C@@]21C [Fluticasone propionate, 6α,9α-Difluoro-17α-(1-oxopropoxy)-11β-hydroxy-16α-methyl-3-oxo-androsta-1,4-diene-17β-carbothioic acid S-fluoromethyl ester, reference compound]
